Source: patent US9662327B2 (AGIOS PHARMACEUTICALS, INC, priority 2011, dated 2017)

Molecular target: IDH1 R132H (Homo sapiens (Human), UniProt O75874, R132H)
Assay: Assays for IDH1 R132H Inhibitors (NADPH/aKG, resazurin detection)
Assay type: biochemical
Conditions: IDH1 R132H enzyme, Table 2; read-out: IDHR132H Activity
Protocol: Assays were conducted in a volume of […] assay buffer (150 mM NaCl, 10 mM MgCl2, 20 mM Tris pH 7.5, 0.03% bovine serum albumin) as follows in a standard 384-well plate: To 25 ul of substrate mix (8 uM NADPH, 2 mM aKG), 1 μl of test compound was added in DMSO. […] The reaction was incubated for 50 minutes at room temperature, then 25 μl of detection mix (30 μM resazurin, […]) was added and the mixture further incubated for 5 minutes at room temperature.

IDH1 R132H, sequence (O75874 whole entry R132H): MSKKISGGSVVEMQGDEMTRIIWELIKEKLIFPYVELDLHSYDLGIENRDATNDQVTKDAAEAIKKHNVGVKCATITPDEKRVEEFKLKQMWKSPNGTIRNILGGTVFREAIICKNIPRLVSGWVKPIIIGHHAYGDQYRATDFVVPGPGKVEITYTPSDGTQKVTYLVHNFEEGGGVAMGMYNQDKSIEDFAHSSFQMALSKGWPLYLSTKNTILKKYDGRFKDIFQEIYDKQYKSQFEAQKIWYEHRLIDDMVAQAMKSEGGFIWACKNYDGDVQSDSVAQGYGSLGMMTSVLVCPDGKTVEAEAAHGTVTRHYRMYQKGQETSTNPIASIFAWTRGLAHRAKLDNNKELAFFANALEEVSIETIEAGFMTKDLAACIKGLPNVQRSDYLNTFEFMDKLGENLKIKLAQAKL

| SMILES | IC50 [µM] |
| --- | --- |
| CC(C)c1nc(N2CCN(S(=O)(=O)c3cccs3)CC2)c(C#N)c2c1COCC2 [Compound 101] | 1 to 10 |
| CC(C)c1nc(N2CCN(C(=O)Nc3ccc(F)cc3)CC2)c(C#N)c2c1COCC2 [Compound 102, 4-(5-cyano-8-isopropyl-3,4-dihydro-1H-pyrano[3,4-c]pyridin-6-yl)-N-(4-fluorophenyl)piperazine-1-carboxamide] | 1 to 10 |
| COc1ccc(OC(=O)N2CCN(c3nc(C(C)C)c4c(c3C#N)CCOC4)CC2)cc1 [Compound 103, 4-methoxyphenyl 4-(5-cyano-8-isopropyl-3,4-dihydro-1H-pyrano[3,4-c]pyridin-6-yl)piperazine-1-carboxylate] | 1 to 10 |
| CC(C)c1nc(N2CCN(C(=O)c3c[nH]c4ccccc34)CC2)c(C#N)c2c1COCC2 [Compound 104, 6-(4-(1H-indole-3-carbonyl)piperazin-1-yl)-8-isopropyl-3,4-dihydro-1H-pyrano[3,4-c]pyridine-5-carbonitrile] | 1 to 10 |
| CC(C)c1nc(N2CCN(C(=O)c3ccc(Cl)c(Cl)c3)CC2)c(C#N)c2c1COCC2 [Compound 105, 6-(4-(3,4-dichlorobenzoyl)piperazin-1-yl)-8-isopropyl-3,4-dihydro-1H-pyrano[3,4-c]pyridine-5-carbonitrile] | 1 to 10 |
| CC(C)c1nc(N2CCN(C(=O)c3ccc(Cl)cc3Cl)CC2)c(C#N)c2c1COCC2 [Compound 106, 6-(4-(2,4-dichlorobenzoyl)piperazin-1-yl)-8-isopropyl-3,4-dihydro-1H-pyrano[3,4-c]pyridine-5-carbonitrile] | 1 to 10 |
| CC(C)c1nc(N2CCN(C(=O)NC3CCCCC3)CC2)c(C#N)c2c1COCC2 [Compound 107, 4-(5-cyano-8-isopropyl-3,4-dihydro-1H-pyrano[3,4-c]pyridin-6-yl)-N-cyclohexylpiperazine-1-carboxamide] | 1 to 10 |
| CC(C)c1nc(N2CC(C)N(C(=O)NC3CCCCC3)C(C)C2)c(C#N)c2c1COCC2 (stereo not shown) [Compound 108, 4-(5-cyano-8-isopropyl-3,4-dihydro-1H-pyrano[3,4-c]pyridin-6-yl)-N-cyclohexyl-2,6-dimethylpiperazine-1-carboxamide] | 1 to 10 |
| CC(C)c1nc(N2C[C@@H](C)N(C(=O)NC3CCCCC3)[C@@H](C)C2)c(C#N)c2c1CCCC2 [Compound 109, (2S,6R)-4-(4-cyano-1-isopropyl-5,6,7,8-tetrahydroisoquinolin-3-yl)-N-cyclohexyl-2,6-dimethylpiperazine-1-carboxamide] | 1 to 10 |
| N#Cc1c(N2CCN(C(=O)c3ccco3)CC2)nc(C2CCCCC2)c2c1CCOC2 [Compound 110, 8-cyclohexyl-6-(4-(furan-2-carbonyl)piperazin-1-yl)-3,4-dihydro-1H-pyrano[3,4-c]pyridine-5-carbonitrile] | 1 to 10 |
| CC(C)c1nc(N2CCN(C(=O)c3ccco3)CC2c2ccccc2)c(C#N)c2c1COCC2 (stereo not shown) [Compound 111, 6-(4-(furan-2-carbonyl)-2-phenylpiperazin-1-yl)-8-isopropyl-3,4-dihydro-1H-pyrano[3,4-c]pyridine-5-carbonitrile] | 1 to 10 |
| Cc1ccc(-c2nc(N3CC(C)N(C(=O)c4ccco4)C(C)C3)c(C#N)c3c2COCC3)cc1 (stereo not shown) [Compound 112] | 1 to 10 |
| Cc1occc1C(=O)N1CCN(c2nc(C(C)C)c3c(c2C#N)CCOC3)CC1 [Compound 113, 8-isopropyl-6-(4-(2-methylfuran-3-carbonyl)piperazin-1-yl)-3,4-dihydro-1H-pyrano[3,4-c]pyridine-5-carbonitrile] | 1 to 10 |
| CC(C)c1nc(N2CC(C)N(C(=O)c3ccco3)CC2C)c(C#N)c2c1COCC2 (stereo not shown) [Compound 114, 6-(4-(furan-2-carbonyl)-2,5-dimethylpiperazin-1-yl)-8-isopropyl-3,4-dihydro-1H-pyrano[3,4-c]pyridine-5-carbonitrile] | 1 to 10 |
| CC(C)c1nc(N2CCN(C(=O)NC3CCCCC3)CC2)c(C#N)c2c1CCCC2 [Compound 115, 4-(4-cyano-1-isopropyl-5,6,7,8-tetrahydroisoquinolin-3-yl)-N-cyclohexylpiperazine-1-carboxamide] | 1 to 10 |

Results, then the molecule that gave them:

| IC50 [µM] | SMILES |
| --- | --- |
| 1 to 10 | CC(C)c1nc(N2CCN(C(=O)c3ccco3)CC2)c(C#N)c2c1CC(C)(C)CC2 [Compound 116, 3-(4-(furan-2-carbonyl)piperazin-1-yl)-1-isopropyl-7,7-dimethyl-5,6,7,8-tetrahydroisoquinoline-4-carbonitrile] |
| 1 to 10 | CC1(C)Cc2c(C#N)c(N3CCN(C(=O)c4ccco4)CC3)nc(C3CCCCC3)c2CO1 [Compound 117, 8-cyclohexyl-6-(4-(furan-2-carbonyl)piperazin-1-yl)-3,3-dimethyl-3,4-dihydro-1H-pyrano[3,4-c]pyridine-5-carbonitrile] |
| 1 to 10 | N#Cc1c(N2CCN(C(=O)c3c[nH]c4ccccc34)CC2)nc(C2CCCCC2)c2c1CCOC2 [Compound 118, 6-(4-(1H-indole-3-carbonyl)piperazin-1-yl)-8-cyclohexyl-3,4-dihydro-1H-pyrano[3,4-c]pyridine-5-carbonitrile] |
| 1 to 10 | N#Cc1c(N2CCN(C(=O)c3cccc4[nH]ccc34)CC2)nc(C2CCCCC2)c2c1CCOC2 [Compound 119, 6-(4-(1H-indole-4-carbonyl)piperazin-1-yl)-8-cyclohexyl-3,4-dihydro-1H-pyrano[3,4-c]pyridine-5-carbonitrile] |
| 1 to 10 | N#Cc1c(N2CCN(C(=O)c3ccoc3)CC2)nc(C2CCCCC2)c2c1CCOC2 [Compound 120, 8-cyclohexyl-6-(4-(furan-3-carbonyl)piperazin-1-yl)-3,4-dihydro-1H-pyrano[3,4-c]pyridine-5-carbonitrile] |
| 1 to 10 | Cc1cc(C(=O)N2CCN(c3nc(C4CCCCC4)c4c(c3C#N)CCOC4)CC2)c(C)o1 [Compound 121, 8-cyclohexyl-6-(4-(2,5-dimethylfuran-3-carbonyl)piperazin-1-yl)-3,4-dihydro-1H-pyrano[3,4-c]pyridine-5-carbonitrile] |
| 1 to 10 | N#Cc1c(N2CCN(C(=O)c3ccc4[nH]ccc4c3)CC2)nc(C2CCCCC2)c2c1CCOC2 [Compound 122, 6-(4-(1H-indole-5-carbonyl)piperazin-1-yl)-8-cyclohexyl-3,4-dihydro-1H-pyrano[3,4-c]pyridine-5-carbonitrile] |
| 1 to 10 | N#Cc1c(N2CCN(C(=O)c3ccc4cc[nH]c4c3)CC2)nc(C2CCCCC2)c2c1CCOC2 [Compound 123, 6-(4-(1H-indole-6-carbonyl)piperazin-1-yl)-8-cyclohexyl-3,4-dihydro-1H-pyrano[3,4-c]pyridine-5-carbonitrile] |
| 1 to 10 | N#Cc1c(N2CCN(C(=O)c3ccco3)CC2)nc(C2CCCC2)c2c1CCOC2 [Compound 124, 8-cyclopentyl-6-(4-(furan-2-carbonyl)piperazin-1-yl)-3,4-dihydro-1H-pyrano[3,4-c]pyridine-5-carbonitrile] |
| 1 to 10 | CC(C)c1nc(N2CCN(C(=O)c3ccco3)C(C)C2)c(C#N)c2c1CCCC2 (stereo not shown) [Compound 125, 3-(4-(furan-2-carbonyl)-3-methylpiperazin-1-yl)-1-isopropyl-5,6,7,8-tetrahydroisoquinoline-4-carbonitrile] |
| 1 to 10 | C[C@@H]1CN(c2nc(C3CCCC3)c3c(c2C#N)CCOC3)C[C@H](C)N1C(=O)c1ccco1 [Compound 126, 8-cyclopentyl-6-((3S,5R)-4-(furan-2-carbonyl)-3,5-dimethylpiperazin-1-yl)-3,4-dihydro-1H-pyrano[3,4-c]pyridine-5-carbonitrile] |
| 1 to 10 | C[C@@H]1CN(c2nc(C3CCCC3)c3c(c2C#N)CCOC3)C[C@H](C)N1C(=O)NC1CCCCC1 [Compound 127, (2S,6R)-4-(5-cyano-8-cyclopentyl-3,4-dihydro-1H-pyrano[3,4-c]pyridin-6-yl)-N-cyclohexyl-2,6-dimethylpiperazine-1-carboxamide] |
| 1 to 10 | C[C@@H]1CN(c2nc(C3CCCCC3)c3c(c2C#N)CCOC3)C[C@H](C)N1C(=O)c1ccco1 [Compound 128, 8-cyclohexyl-6-((3S,5R)-4-(furan-2-carbonyl)-3,5-dimethylpiperazin-1-yl)-3,4-dihydro-1H-pyrano[3,4-c]pyridine-5-carbonitrile] |
| 1 to 10 | Cc1ccoc1C(=O)N1CCN(c2nc(C3CCCCC3)c3c(c2C#N)CCOC3)CC1 [Compound 129, 8-cyclohexyl-6-(4-(3-methylfuran-2-carbonyl)piperazin-1-yl)-3,4-dihydro-1H-pyrano[3,4-c]pyridine-5-carbonitrile] |
| 1 to 10 | CC1CN(c2nc(-c3cccc(F)c3)c3c(c2C#N)CC(C)(C)OC3)CCN1C(=O)c1ccoc1 (stereo not shown) [Compound 130, 8-(3-fluorophenyl)-6-(4-(furan-3-carbonyl)-3-methylpiperazin-1-yl)-3,3-dimethyl-3,4-dihydro-1H-pyrano[3,4-c]pyridine-5-carbonitrile] |
| 1 to 10 | N#Cc1c(N2CCN(C(=O)Cc3ccccc3)CC2)nc(C2CCCCC2)c2c1CCOC2 [Compound 131, 8-cyclohexyl-6-(4-(2-phenylacetyl)piperazin-1-yl)-3,4-dihydro-1H-pyrano[3,4-c]pyridine-5-carbonitrile] |
| 1 to 10 | CC1CN(c2nc(C3CCCCC3)c3c(c2C#N)CCOC3)CCN1C(=O)c1ccco1 (stereo not shown) [Compound 132, 8-cyclohexyl-6-(4-(furan-2-carbonyl)-3-methylpiperazin-1-yl)-3,4-dihydro-1H-pyrano[3,4-c]pyridine-5-carbonitrile] |
| 1 to 10 | CC1CN(c2nc(C3CCCCC3)c3c(c2C#N)CCOC3)CCN1C(=O)c1ccoc1 (stereo not shown) [Compound 133, 8-cyclohexyl-6-(4-(furan-3-carbonyl)-3-methylpiperazin-1-yl)-3,4-dihydro-1H-pyrano[3,4-c]pyridine-5-carbonitrile] |
| 1 to 10 | CC1CN(c2nc(C3CCCCC3)c3c(c2C#N)CCOC3)CCN1C(=O)c1ccc2[nH]ccc2c1 (stereo not shown) [Compound 134, 6-(4-(1H-indole-5-carbonyl)-3-methylpiperazin-1-yl)-8-cyclohexyl-3,4-dihydro-1H-pyrano[3,4-c]pyridine-5-carbonitrile] |
